Results: the NIST ThermoML archive (doi:10.1016/j.fluid.2010.03.010)

Settings: Liquid, Vibrating tube method

CCCC[n+]1ccn(C)c1.O=S(=O)([N-]S(=O)(=O)C(F)(F)F)C(F)(F)F
Settings	mass density [kg/m3]
345.15 K, 101.33 kPa	1392.16
346.15 K, 101.33 kPa	1391.23
347.15 K, 101.33 kPa	1390.31
348.15 K, 101.33 kPa	1389.38
349.15 K, 101.33 kPa	1388.46
350.15 K, 101.33 kPa	1387.54
351.15 K, 101.33 kPa	1386.61
352.15 K, 101.33 kPa	1385.69
353.15 K, 100 kPa	1385.8
353.15 K, 101.33 kPa	1384.77
353.15 K, 250 kPa	1385.9
353.15 K, 500 kPa	1386.1
353.15 K, 1000 kPa	1386.5
353.15 K, 2000 kPa	1387.4
353.15 K, 5000 kPa	1390.1
353.15 K, 10000 kPa	1394.3
353.15 K, 14990 kPa	1398.4
353.15 K, 20010 kPa	1402.5
353.15 K, 24990 kPa	1406.3
353.15 K, 30010 kPa	1410.2
353.15 K, 34990 kPa	1413.8
353.15 K, 40000 kPa	1417.5
353.15 K, 45000 kPa	1421
353.15 K, 50000 kPa	1424.6
353.15 K, 54990 kPa	1427.9
353.15 K, 60010 kPa	1431.3
354.15 K, 101.33 kPa	1383.85
355.15 K, 101.33 kPa	1382.93
356.15 K, 101.33 kPa	1382.01
357.15 K, 101.33 kPa	1381.09
358.15 K, 101.33 kPa	1380.17
359.15 K, 101.33 kPa	1379.25
360.15 K, 101.33 kPa	1378.34
361.15 K, 101.33 kPa	1377.42
362.15 K, 101.33 kPa	1376.5
363.15 K, 100 kPa	1376.6
363.15 K, 101.33 kPa	1375.58
363.15 K, 250 kPa	1376.7
363.15 K, 500 kPa	1376.9
363.15 K, 1010 kPa	1377.4
363.15 K, 4990 kPa	1381
363.15 K, 10010 kPa	1385.4
363.15 K, 14990 kPa	1389.6
363.15 K, 20010 kPa	1393.8
363.15 K, 25000 kPa	1397.8
363.15 K, 30010 kPa	1401.7
363.15 K, 34990 kPa	1405.5
363.15 K, 40000 kPa	1409.2
363.15 K, 45010 kPa	1412.8
363.15 K, 50000 kPa	1416.4
363.15 K, 54990 kPa	1419.9
363.15 K, 60000 kPa	1423.4
373.15 K, 100 kPa	1367.3
373.15 K, 250 kPa	1367.4
373.15 K, 500 kPa	1367.7
373.15 K, 1010 kPa	1368.2
373.15 K, 2000 kPa	1369.1
373.15 K, 4990 kPa	1371.9
373.15 K, 10000 kPa	1376.5
373.15 K, 14990 kPa	1380.8
373.15 K, 20000 kPa	1385.1
373.15 K, 24990 kPa	1389.2
373.15 K, 30010 kPa	1393.3
373.15 K, 34970 kPa	1397.1
373.15 K, 40000 kPa	1401
373.15 K, 45000 kPa	1404.7
373.15 K, 50000 kPa	1408.4
373.15 K, 54990 kPa	1411.9
373.15 K, 60010 kPa	1415.5
393.15 K, 100 kPa	1348.8
393.15 K, 250 kPa	1348.9
393.15 K, 500 kPa	1349.2
393.15 K, 1000 kPa	1349.7
393.15 K, 2000 kPa	1350.7
393.15 K, 4990 kPa	1353.7
393.15 K, 10000 kPa	1358.6
393.15 K, 15000 kPa	1363.2
393.15 K, 20010 kPa	1367.8
393.15 K, 25000 kPa	1372.1
393.15 K, 30010 kPa	1376.4
393.15 K, 35000 kPa	1380.5
393.15 K, 40000 kPa	1384.6
393.15 K, 45000 kPa	1388.5
393.15 K, 50000 kPa	1392.4
393.15 K, 55020 kPa	1396.2
393.15 K, 60000 kPa	1399.9
413.15 K, 100 kPa	1330
413.15 K, 250 kPa	1330.2
413.15 K, 500 kPa	1330.5
413.15 K, 1000 kPa	1331
413.15 K, 2000 kPa	1332.1
413.15 K, 4990 kPa	1335.3
413.15 K, 10000 kPa	1340.6
413.15 K, 14990 kPa	1345.6
413.15 K, 20010 kPa	1350.5
413.15 K, 25000 kPa	1355.1
413.15 K, 30000 kPa	1359.7
413.15 K, 34990 kPa	1364
413.15 K, 40000 kPa	1368.4
413.15 K, 45000 kPa	1372.5
413.15 K, 50000 kPa	1376.6
413.15 K, 55000 kPa	1380.6
413.15 K, 60000 kPa	1384.5
433.15 K, 100 kPa	1311
433.15 K, 250 kPa	1311.1
433.15 K, 500 kPa	1311.4
433.15 K, 1000 kPa	1312
433.15 K, 2000 kPa	1313.2
433.15 K, 4990 kPa	1316.7
433.15 K, 10000 kPa	1322.4
433.15 K, 15000 kPa	1327.8
433.15 K, 20010 kPa	1333
433.15 K, 25010 kPa	1338
433.15 K, 30010 kPa	1342.9
433.15 K, 34990 kPa	1347.5
433.15 K, 40000 kPa	1352.1
433.15 K, 45000 kPa	1356.6
433.15 K, 50000 kPa	1360.9
433.15 K, 55000 kPa	1365.1
433.15 K, 60000 kPa	1369.3
453.15 K, 100 kPa	1291.4
453.15 K, 250 kPa	1291.7
453.15 K, 500 kPa	1292
453.15 K, 1000 kPa	1292.6
453.15 K, 1950 kPa	1294
453.15 K, 4990 kPa	1297.7
453.15 K, 10000 kPa	1303.9
453.15 K, 15000 kPa	1309.7
453.15 K, 20000 kPa	1315.3
453.15 K, 25000 kPa	1320.7
453.15 K, 30010 kPa	1325.9
453.15 K, 35000 kPa	1330.9
453.15 K, 40000 kPa	1335.9
453.15 K, 45010 kPa	1340.6
453.15 K, 50000 kPa	1345.3
453.15 K, 54990 kPa	1349.8
453.15 K, 60000 kPa	1354.3
473.15 K, 100 kPa	1271.4
473.15 K, 250 kPa	1271.7
473.15 K, 500 kPa	1272
473.15 K, 990 kPa	1272.7
473.15 K, 2000 kPa	1274.2
473.15 K, 4990 kPa	1278.2
473.15 K, 10000 kPa	1285
473.15 K, 15000 kPa	1291.2
473.15 K, 20010 kPa	1297.4
473.15 K, 24990 kPa	1303.2
473.15 K, 30010 kPa	1308.9
473.15 K, 34990 kPa	1314.2
473.15 K, 40010 kPa	1319.6
473.15 K, 45000 kPa	1324.7
473.15 K, 50000 kPa	1329.7
473.15 K, 55000 kPa	1334.5
473.15 K, 60000 kPa	1339.3
